The supplement of paper PMC10307832

Legend:
Experiment in all cases: relative viability (nuclei count vs DMSO), 5 days (fraction); higher = more cells survive
BX 795 + Bortezomib = compound: O=C(NCCCNc1nc(Nc2cccc(NC(=O)N3CCCC3)c2)ncc1I)c1cccs1 [BX 795] + CC(C)C[C@H](NC(=O)[C@H](Cc1ccccc1)NC(=O)c1cnccn1)B(O)O [Bortezomib] (partner 0.002 µM)
Summary of the method: (§1)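 After 5 days of treatment, lung cancer cells in 1536-well plates were fixed and stained in a single step (final 0.05% Triton X-100, 1% formaldehyde, 1 ug/ml Hoechst) and their nuclei counted on 4× images. Treatment had been applied by pin tool the day after seeding as one drug alone or as a fixed anchor-drug dose with five library-drug doses (not always all listed) in √10 steps. Relative viability is the nuclei count of treated wells divided by that of vehicle wells, and values are medians of duplicate plates.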

BX 795 + Navitoclax = compound: O=C(NCCCNc1nc(Nc2cccc(NC(=O)N3CCCC3)c2)ncc1I)c1cccs1 [BX 795] + CC1(C)CCC(c2ccc(Cl)cc2)=C(CN2CCN(c3ccc(C(=O)NS(=O)(=O)c4ccc(N[C@H](CCN5CCOCC5)CSc5ccccc5)c(S(=O)(=O)C(F)(F)F)c4)cc3)CC2)C1 [Navitoclax] (partner 0.5 µM)
Summary of the method: as §1

BX 795 + Pictilisib = compound: O=C(NCCCNc1nc(Nc2cccc(NC(=O)N3CCCC3)c2)ncc1I)c1cccs1 [BX 795] + CS(=O)(=O)N1CCN(Cc2cc3nc(-c4cccc5[nH]ncc45)nc(N4CCOCC4)c3s2)CC1 [Pictilisib] (partner 1 µM)
Summary of the method: as §1

BX 795 + Crizotinib = compound: O=C(NCCCNc1nc(Nc2cccc(NC(=O)N3CCCC3)c2)ncc1I)c1cccs1 [BX 795] + C[C@@H](Oc1cc(-c2cnn(C3CCNCC3)c2)cnc1N)c1c(Cl)ccc(F)c1Cl [Crizotinib] (partner 1 µM)
Summary of the method: as §1

BX 795 + Decitabine = compound: O=C(NCCCNc1nc(Nc2cccc(NC(=O)N3CCCC3)c2)ncc1I)c1cccs1 [BX 795] + Nc1ncn([C@H]2C[C@H](O)[C@@H](CO)O2)c(=O)n1 [Decitabine] (partner 2 µM)
Summary of the method: as §1

Cell Line | relative viability (BX 795 + Bortezomib; first compound 0.04 µM) | relative viability (BX 795 + Bortezomib; first compound 0.1265 µM) | relative viability (BX 795 + Bortezomib; first compound 0.4 µM) | relative viability (BX 795 + Bortezomib; first compound 1.265 µM) | relative viability (BX 795 + Navitoclax; first compound 0.04 µM) | relative viability (BX 795 + Navitoclax; first compound 0.1265 µM) | relative viability (BX 795 + Navitoclax; first compound 0.4 µM) | relative viability (BX 795 + Navitoclax; first compound 1.265 µM) | relative viability (BX 795 + Pictilisib; first compound 0.04 µM) | relative viability (BX 795 + Pictilisib; first compound 0.1265 µM) | relative viability (BX 795 + Pictilisib; first compound 0.4 µM) | relative viability (BX 795 + Pictilisib; first compound 1.265 µM) | relative viability (BX 795 + Crizotinib; first compound 0.04 µM) | relative viability (BX 795 + Crizotinib; first compound 0.1265 µM) | relative viability (BX 795 + Crizotinib; first compound 0.4 µM) | relative viability (BX 795 + Crizotinib; first compound 1.265 µM) | relative viability (BX 795 + Decitabine; first compound 0.04 µM) | relative viability (BX 795 + Decitabine; first compound 0.1265 µM) | relative viability (BX 795 + Decitabine; first compound 0.4 µM) | relative viability (BX 795 + Decitabine; first compound 1.265 µM)
BEN | 0.805 | 0.783 | 0.842 | 0.873 | 0.0771 | 0.0586 | 0.0606 | 0.0858 | 0.542 | 0.587 | 0.533 | 0.715 | 0.984 | 1.02 | 0.787 | 0.821 | 0.886 | 0.709 | 0.673 | 0.672
NCI-H1993 | 1.15 | 1.26 | 1.05 | 1.02 | 0.868 | 0.857 | 0.846 | 0.614 | 0.83 | 0.79 | 0.793 | 0.806 | 0.888 | 0.891 | 0.795 | 0.665 | 0.65 | 0.602 | 0.719 | 0.652
EKVX | 1.15 | 1.09 | 0.99 | 0.886 | 0.703 | 1.02 | 0.851 | 0.896 | 0.401 | 0.455 | 0.421 | 0.466 | 1.04 | 0.867 | 0.732 | 0.753 | 0.356 | 0.336 | 0.382 | 0.377
A-427 | 0.972 | 0.964 | 1.02 | 0.866 | 0.97 | 1.02 | 1.01 | 0.788 | 0.723 | 0.805 | 0.651 | 0.585 | 0.906 | 0.924 | 0.771 | 0.446 | 0.588 | 0.588 | 0.545 | 0.516
A549 |  |  |  |  | 1.19 | 1.24 | 1.47 | 0.739 | 0.51 | 0.47 | 0.449 | 0.134 | 0.725 | 0.71 | 0.777 | 0.128 | 0.332 | 0.289 | 0.329 | 0.282
COR-L23 | 1.1 | 1.02 | 0.916 | 0.979 | 1.15 | 1.02 | 1.02 | 0.524 | 0.909 | 0.899 | 0.75 | 0.538 | 0.724 | 0.703 | 0.466 | 0.204 | 0.53 | 0.42 | 0.516 | 0.319
NCI-H1437 | 0.543 | 0.493 | 0.533 | 0.415 | 1.08 | 1.06 | 1.15 | 0.94 | 0.488 | 0.411 | 0.417 | 0.55 | 0.871 | 0.96 | 1.03 | 0.562 | 0.616 | 0.586 | 0.846 | 0.618
